In article PMC9686977, “Understanding the Role of Self-Assembly and Interaction with Biological Membranes of Short Cationic Lipopeptides in the Effective Design of New Antibiotics” (Antibiotics, 2022):
Values after ≈ are worked out from the molar mass of the structure shown. Residues, ends and D or L forms follow the SMILES beside them. *: point of attachment. Palmitoyl = CCCCCCCCCCCCCCCC(=O)*; Myristoyl = CCCCCCCCCCCCCC(=O)*; Lauroyl = CCCCCCCCCCCC(=O)*

How the values were obtained:
[1] = tested on: Escherichia coli ATCC 25922; assay type: cell-based; settings: ATCC 25922, 18 h
Procedure: (§1) The minimum inhibitory concentration (MIC) was determined according to the procedure recommended by the Clinical Laboratory Standards Institute guidelines. Reference strains of bacteria: Staphylococcus aureus ATCC 25923, Staphylococcus epidermidis ATCC 14990, Escherichia coli ATCC 25922, Pseudomonas aeruginosa ATCC 9027, and fungus Candida albicans ATCC 10231 were obtained from Polish Collection of Microorganisms (PCM, Polish Academy of Sciences, Wroclaw, Poland). […] The plates with the compounds were incubated for 18 h at 37 °C for bacteria and 48 h at 25 °C for fungi. The minimum inhibitory concentration was assumed as the lowest concentration of a lipopeptide at which the observable growth was inhibited.

[2] = tested on: Candida albicans ATCC 10231; assay type: cell-based; settings: ATCC 10231, 48 h
Procedure: as §1

[3] = tested on: Staphylococcus epidermidis ATCC 14990; assay type: cell-based; settings: ATCC 14990, 18 h
Procedure: as §1

[4] = tested on: Staphylococcus aureus ATCC 25923; assay type: cell-based; settings: ATCC 25923, 18 h
Procedure: as §1

[5] = tested on: Pseudomonas aeruginosa ATCC 9027; assay type: cell-based; settings: ATCC 9027, 18 h
Procedure: as §1

[6] = tested on: human keratinocytes HaCaT; assay type: cell-based; settings: 48 h
Procedure: The cytotoxicity of the compounds was evaluated on the basis of a tetrazolium salt reduction test (MTT) performed along the lines of human keratinocytes HaCaT. The keratinocytes were planted in 96-well plates in a medium supplemented with serum. After 24 h, the medium was changed to a serum-free DMEM one containing graded concentrations of peptides. The cells were incubated with peptides for 48 h. Thereafter, MTT was added in order to reach a final concentration of 0.5 mg/mL, and the plates were incubated at 37 °C for 4 h. Then, the MTT reading was analysed using a plate reader. The absorbance at 630 nm (background absorbance) was subtracted from that at 570 nm for each well.

[7] = different lipopeptide concentrations

Row | SMILES | MIC E. coli [1] | MIC C. albicans [2] | MIC S. epidermidis [3] | MIC S. aureus [4] | MIC P. aeruginosa [5] | IC50 on human keratinocytes (HaCaT) [6] | aggregate size from self-diffusion coefficients (PFG NMR), compared with C16-KKKK-NH2 [7]
1 | CCCCCCCCCCCC(=O)N[C@@H](CCCCN)C(=O)N[C@@H](CCCCN)C(=O)N[C@@H](CCCCN)C(=O)N[C@@H](CCCCN)C(N)=O [Peptide C12-KKKK-NH2] (Lauroyl-KKKK-NH2) | 512 µg/mL (≈ 719 µM) | >512 µg/mL | 16 µg/mL (≈ 22.5 µM) | 64 µg/mL (≈ 89.9 µM) | 256 µg/mL (≈ 360 µM) |  | 
2 | CCCCCCCCCCCC(=O)N[C@@H](CCCCN)C(=O)N[C@@H](CCCNC(=N)N)C(=O)N[C@@H](CCCCN)C(=O)N[C@@H](CCCCN)C(N)=O [Peptide C12-KRKK-NH2] (Lauroyl-KRKK-NH2) | 512 µg/mL (≈ 692 µM) | 512 µg/mL (≈ 692 µM) | ≤1 µg/mL | 64 µg/mL (≈ 86.5 µM) | 512 µg/mL (≈ 692 µM) |  | 
3 | CCCCCCCCCCCCCC(=O)N[C@@H](CCCCN)C(=O)N[C@@H](CCCCN)C(=O)N[C@@H](CCCCN)C(=O)N[C@@H](CCCCN)C(N)=O [Peptide C14-KKKK-NH2] (Myristoyl-KKKK-NH2) | 128 µg/mL (≈ 173 µM) | 128 µg/mL (≈ 173 µM) | 2 µg/mL (≈ 2.7 µM) | 32 µg/mL (≈ 43.2 µM) | 64 µg/mL (≈ 86.5 µM) | 15.63 ± 0.74 µg/mL (≈ 21.1 µM) | 
4 | CCCCCCCCCCCCCC(=O)N[C@@H](CCCCN)C(=O)N[C@@H](CCCCN)C(=O)N[C@@H](CCCCN)C(=O)N[C@@H](CCCNC(=N)N)C(N)=O [Peptide C14-KKKR-NH2] (Myristoyl-KKKR-NH2) | 128 µg/mL (≈ 167 µM) | 128 µg/mL (≈ 167 µM) | ≤1 µg/mL | 32 µg/mL (≈ 41.7 µM) | 128 µg/mL (≈ 167 µM) | 32.5 ± 10.0 µg/mL (≈ 42.3 µM) | 
5 | CCCCCCCCCCCCCC(=O)N[C@@H](CCCCN)C(=O)N[C@@H](CCCNC(=N)N)C(=O)N[C@@H](CCCCN)C(=O)N[C@@H](CCCCN)C(N)=O [Peptide C14-KRKK-NH2] (Myristoyl-KRKK-NH2) | 64 µg/mL (≈ 83.3 µM) | 128 µg/mL (≈ 167 µM) | ≤1 µg/mL | 16 µg/mL (≈ 20.8 µM) | 64 µg/mL (≈ 83.3 µM) | 20.38 ± 4.12 µg/mL (≈ 26.5 µM) | 
6 | CCCCCCCCCCCCCCCC(=O)N[C@@H](CCCCN)C(=O)NCC(=O)N[C@@H](CCCCN)C(N)=O [Peptide C16-KGK-NH2] (Palmitoyl-Lys-Gly-Lys-NH2) | 8 µg/mL (≈ 14.1 µM) | 8 µg/mL (≈ 14.1 µM) | 4 µg/mL (≈ 7.03 µM) | 16 µg/mL (≈ 28.1 µM) | 64 µg/mL (≈ 113 µM) | 7.41 ± 3.05 µg/mL (≈ 13 µM) | 
7 | CCCCCCCCCCCCCCCC(=O)N[C@@H](CCCCN)C(=O)N[C@@H](CCCCN)C(N)=O [Peptide C16-KK-NH2] | 8 µg/mL (≈ 15.6 µM) | 4 µg/mL (≈ 7.82 µM) | 4 µg/mL (≈ 7.82 µM) | 8 µg/mL (≈ 15.6 µM) | 128 µg/mL (≈ 250 µM) | 2.5 ± 0.8 µg/mL (≈ 4.88 µM) | 
8 | CCCCCCCCCCCCCCCC(=O)N[C@@H](CCCCN)C(=O)N[C@@H](CCCCN)C(=O)N[C@@H](CCCCN)C(=O)N[C@@H](CCCCN)C(N)=O [Peptide C16-KKKK-NH2] (Palmitoyl-KKKK-NH2) | 16 µg/mL (≈ 20.8 µM) | 16 µg/mL (≈ 20.8 µM) | 8 µg/mL (≈ 10.4 µM) | 8 µg/mL (≈ 10.4 µM) | 16 µg/mL (≈ 20.8 µM) | 23.52 ± 1.30 µg/mL (≈ 30.6 µM) | 
9 | CCCCCCCCCCCCCCCC(=O)N[C@@H](CCCCN)C(=O)NCCC(=O)N[C@@H](CCCCN)C(N)=O [Peptide C16-KβAK-NH2] | 64 µg/mL (≈ 110 µM) | 4 µg/mL (≈ 6.86 µM) | 2 µg/mL (≈ 3.43 µM) | 128 µg/mL (≈ 220 µM) | 64 µg/mL (≈ 110 µM) | 25.11 ± 6.17 µg/mL (≈ 43.1 µM) | 
10 | CCCCCCCCCCCCCCCC(=O)N[C@@H](CCCNC(=N)N)C(=O)N[C@@H](CCCNC(=N)N)C(=O)N[C@@H](CCCNC(=N)N)C(=O)N[C@@H](CCCNC(=N)N)C(N)=O [Peptide C16-RRRR-NH2] (Palmitoyl-RRRR-NH2) |  |  |  |  |  |  | distinctly larger aggregates
11 | CCCCCCCCCCCCCCCCCC(=O)N[C@@H](CCCCN)C(=O)N[C@@H](CCCCN)C(N)=O [Peptide C18-KK-NH2] | 128 µg/mL (≈ 237 µM) | 4 µg/mL (≈ 7.41 µM) | 4 µg/mL (≈ 7.41 µM) | 64 µg/mL (≈ 119 µM) | 64 µg/mL (≈ 119 µM) | 0.69 ± 0.001 µg/mL (≈ 1.28 µM) | 
